Key:
Conditions in all cases: 48 h
NOMO1 [1] = experiment: AUC of viability dose-response curve (% viability x log10 dose units); higher = less sensitive
How it was run: (§1)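 Over 48 h at 37°C, leukemia cells in 1536-well plates (500 or 1000 cells/well), adapted to each medium, received library compounds in DMSO at 11 threefold doses from 47 μM to 0.79 nM. CellTiter-Glo One luminescence, normalised per plate to DMSO and cell-free wells, was fitted by a four-parameter log-logistic function of log10 dose. The area under the curve was then integrated by trapezoidal rule, after scaling curves above full viability and removing those that failed quality control.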

SEM cells [2] = experiment: as above
How it was run: as §1

P12-Ichikawa [3] = experiment: as above
How it was run: as §1

NOMO1 [4] = experiment: cell viability relative to DMSO control; higher = less cytotoxic
How it was run: (§2)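 Library compounds in DMSO were pin-dosed into 1536-well plates (5 μl) holding NOMO1 or SEM (500 cells/well) or P12-Ichikawa (1000 cells/well) leukemia cells, across an 11-point threefold series of 47 μM to 0.79 nM. Each cell line had been adapted for at least four passages in each medium. CellTiter-Glo One luminescence was read after 48 h at 37°C. Viability is the per-plate percentage relative to DMSO wells, with cell-free wells as background.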

SEM cells [5] = experiment: as above
How it was run: as §2

P12-Ichikawa [6] = experiment: as above
How it was run: as §2

CN(C)CCN(C)C(=O)c1ccc(NC(=O)Nc2ccc(-c3nc(N4CCOCC4)c4ccn(CC(F)(F)F)c4n3)cc2)cc1
AUC of viability dose-response curve
Conditions | NOMO1 [1] | P12-Ichikawa [3] | SEM cells [2]
HPLM + 10% dialyzed FBS | 327 | 417 | 339
RPMI 5 mM glucose + 10% FBS | 393 | 359 | 325
RPMI 5 mM glucose + 10% dialyzed FBS | 371 | 360 | 341

cell viability [%]
Conditions | NOMO1 [4] | P12-Ichikawa [6] | SEM cells [5]
HPLM + 10% dialyzed FBS, 0.000781 µM | – | 114 | 104
HPLM + 10% dialyzed FBS, 0.00234 µM | – | 120 | 100
HPLM + 10% dialyzed FBS, 0.00702 µM | – | 112 | 120
HPLM + 10% dialyzed FBS, 0.0211 µM | – | 122 | 111
HPLM + 10% dialyzed FBS, 0.0632 µM | – | 106 | 88
HPLM + 10% dialyzed FBS, 0.19 µM | – | 100 | 63.9
HPLM + 10% dialyzed FBS, 0.569 µM | – | 101 | 65.8
HPLM + 10% dialyzed FBS, 1.71 µM | – | 89.7 | 48.6
HPLM + 10% dialyzed FBS, 5.12 µM | – | 90.8 | 52.7
HPLM + 10% dialyzed FBS, 15.4 µM | – | 90.8 | 50.2
HPLM + 10% dialyzed FBS, 46.1 µM | – | 83.2 | 54.3
RPMI 5 mM glucose + 10% FBS, 0.000781 µM | 101 | 115 | 106
RPMI 5 mM glucose + 10% FBS, 0.00234 µM | 115 | 114 | 81.7
RPMI 5 mM glucose + 10% FBS, 0.00702 µM | 117 | 121 | 96.2
RPMI 5 mM glucose + 10% FBS, 0.0211 µM | 130 | 118 | 117
RPMI 5 mM glucose + 10% FBS, 0.0632 µM | 109 | 85 | 73.7
RPMI 5 mM glucose + 10% FBS, 0.19 µM | 91.2 | 77.9 | 48
RPMI 5 mM glucose + 10% FBS, 0.569 µM | 74.5 | 77.7 | 49.2
RPMI 5 mM glucose + 10% FBS, 1.71 µM | 70 | 67.6 | 45.9
RPMI 5 mM glucose + 10% FBS, 5.12 µM | 75.7 | 64.9 | 45.8
RPMI 5 mM glucose + 10% FBS, 15.4 µM | 78.7 | 65.4 | 43.6
RPMI 5 mM glucose + 10% FBS, 46.1 µM | 81.9 | 69.9 | 48.7
RPMI 5 mM glucose + 10% dialyzed FBS, 0.000781 µM | 116 | – | 112
RPMI 5 mM glucose + 10% dialyzed FBS, 0.00234 µM | 113 | – | 110
RPMI 5 mM glucose + 10% dialyzed FBS, 0.00702 µM | 113 | – | 112
RPMI 5 mM glucose + 10% dialyzed FBS, 0.0211 µM | 121 | – | 113
RPMI 5 mM glucose + 10% dialyzed FBS, 0.0632 µM | 92.6 | – | 87.6
RPMI 5 mM glucose + 10% dialyzed FBS, 0.19 µM | 78.5 | – | 75.5
RPMI 5 mM glucose + 10% dialyzed FBS, 0.569 µM | 81.7 | – | 63.2
RPMI 5 mM glucose + 10% dialyzed FBS, 1.71 µM | 67.4 | – | 60.1
RPMI 5 mM glucose + 10% dialyzed FBS, 5.12 µM | 72.5 | – | 56.6
RPMI 5 mM glucose + 10% dialyzed FBS, 15.4 µM | 68.1 | – | 51
RPMI 5 mM glucose + 10% dialyzed FBS, 46.1 µM | 69.5 | – | 53.3
